A short description of data set [1]: Time-dependent material absorption test in vials, SEBS. Conditions: for absorption into SEBS: recovered concentration compared to dosing concentration. The data set is classed as physicochemical.
Experimental: (§1) A method for ascertaining the absorption of a specific small-molecule into a polymer was developed. The output of this method are the fundamental parameters that fully define the absorption of a specific compound into the material tested; specifically, the diffusivity and partition coefficient are ascertained. […] The steps for ascertaining this absorption is as follows: • 1. Dissolve the small molecule in an aqueous phase (medium) and incubate the solution (30) with the tested material (31), such as in a vial (29). The incubation should be long enough so that diffusion is not limiting absorption and the transport into the material is at equilibrium with the transport of the compound out of the material and into the aqueous phase. • 2. Sample media from the vials at a number of time points. • 3. Measure the concentration of the small molecule remaining in the aqueous phase (30) using a mass spectrometer, plate reader, etc. from the media sampled. • 4. Curve-fit the measured data to quantify the absorption and diffusion parameters.
(§2) Each experiment includes a number of controls and test conditions. Using multiple controls and test conditions allows absorption to the vial and well-plate to be characterized, as well as absorption versus adsorption to the tested material, as well as yielding the time-dependent nature of absorption into the material. […] The goals of the experiments are to directly quantify partitioning of the compound, or compound loss at equilibrium (kinetics), and to directly quantify diffusion of the compound, or time-dependent compound loss (dynamics).
(§3) Single time point experiments are only capable of extracting kinetics, not dynamics. Time-dependent studies capture not only equilibrium endpoints (K), but also time-dependent changes/dynamics (D). One-dimensional computational models are used to fit experimental results of time-dependent studies. […] Once the particular curve is known, the parameters which defined that curve are taken as the fundamental parameters defining the material-compound absorptive interaction.
A short description of data set [2]: Time-dependent material absorption test in vials, PDMS. The data set is classed as physicochemical. Conditions: for absorption into PDMS: recovered concentration compared to dosing concentration.
Experimental: as §1, §2, §3
The conditions of data set [3]: recovered concentration compared to dosing concentration. The text has this:
Curve-fit the measured data to quantify the absorption and diffusion parameters.

Data set [4] in a line: Flow absorption study in PDMS microfluidic device / compound distribution kit. The format is physicochemical. The text has this:
An exemplary method may follow the method of an intended experiment or study. As an example, the compound distribution kit may be used with microfluidic devices. An exemplary method for use with microfluidic devices may follow an intended study method with the following changes: no coatings, no cell seeding, and reduced number of compound doses. In one embodiment, there may not be a need to perform coatings on the microfluidic device that are related to biological aspects of the experiment. Some coatings, such as those that change the chemistry of the microfluidic device material makeup, may need to be done, especially if they may affect compound absorbency. It one embodiment, coatings are done with the compound distribution kit at the discretion of the user. In one embodiment, cell seeding is not needed. In one embodiment, if the intended-study protocol compares several concentrations of a test compound, the absorption control experiment need only be run for one of these concentrations. In one embodiment, it is recommended to use the highest compound concentration planned for the intended study, in order to maximize quantification (e.g. LCMS) sensitivity. However, a lower concentration of test compound may be selected if there are concerns about the compound's solubility limits or it crashing out of solution at the higher concentration. Crashing out of solution is when the concentration of a solute in a solution reaches a point where the solute precipitates. In one embodiment, the compound is dosed for the same duration, at the same flow rate, in the same microfluidic channel(s) as per the intended protocol, experiment or study. That is, if the intended study specifies dosing only in a first channel, with no compound in a second channel, then the same method would be applied during the use of the compound distribution kit. In one embodiment, media and solution should be the same during use of the compound distribution kit as in the intended study. In one embodiment, the same media or solution, as well as any additives or supplements, as medium composition and additives can interact with test compounds (e.g. protein binding). In one embodiment, media or solutions should also be equilibrated in the same manner, such as degassing and preheating. In one embodiment, effluent samples taken during use of the compound distribution kit should be collected at the same time as the intended study. Compound distribution can be a highly dynamic process, and as such matching time points may be able to ensure that the results of the compound distribution kit correspond closely to the intended study. […]

Data set [5] is described as follows: First round absorption study on Parylene coated SEBS and PDMS gaskets (plate reader). The format is physicochemical. Conditions: coating thickness 2 μm and 8 μm; exposure 0, 14, 40 and 72 hours. The text has this:
Two quantitative studies were run on Parylene coated materials in order to assess its effectiveness in minimizing small molecule absorbency. In the first study Parylene coated SEBS and Parylene coated PDMS were both exposed to Rhodamine B and Coumarin. In the second study the absorption of Parylene coated SEBS and Parylene coated E140 were compared to the absorption of known low-absorbing materials, such as glass and COP.
In the first round of absorption studies, SEBS and PDMS gaskets were coated with Parylene at two thicknesses: 2 μm and 8 μm. Parylene-coated gaskets were exposed to Rhodamine B and Coumarin for 0, 14, 40 and 72 hours. The remaining concentration of Rhodamine B and Coumarin in the exposure solution were measured on a plate reader. Each condition was tested on two gaskets. Limited replicates were available due to the number of conditions run. This “shotgun approach” was used in order to try many coating conditions and quickly determine the best options. […] FIG. 33B depicts the fraction of Rhodamine B recovered from the solutions for coatings of varying thickness on two materials known to absorb. […] One observation from the experiment was that the Parylene may crack, leading to gasket absorption. Another observation from the experiment was that Parylene adhesion to the PDMS and SEBS was poor, resulting in easy removal of Parylene. […]

Data set [6] in a line: Second round absorption study: Parylene coated SEBS and E140 compared with glass, COP and control solution. The data set is classed as physicochemical. The text has this:
Two quantitative studies were run on Parylene coated materials in order to assess its effectiveness in minimizing small molecule absorbency. In the first study Parylene coated SEBS and Parylene coated PDMS were both exposed to Rhodamine B and Coumarin. In the second study the absorption of Parylene coated SEBS and Parylene coated […] were compared to the absorption of known low-absorbing materials, such as glass and COP. In the second round of absorption studies, after parylene-coating process optimization, the absorption of Parylene coated SEBS and Parylene coated […] were compared to both the absorption of known low-absorbing materials, such as glass and COP, and a control solution of the drug not in contact with a material. The coated materials were exposed to a solution carrying a known concentration of the drug, Coumarin. The solution was tested three times to quantify the remaining concentration of the Coumarin, before exposure to the material, at 22 hours and at 92 hours. […] SEBS absorbed more of the compound than […].

Data set [7] can be described thus: Flow study of microfluidic device in fluidic communication with perfusion manifold assembly. The data set is classed as physicochemical. The text has this:
FIGS. 98A and 98B show a comparison between a computational (COMSOL) model results and actual experimental results for cellular exposure ranges of the small-molecule compound Coumarin. […] For this experiment the microfluidic device was in fluidic communication with a perfusion manifold assembly. […] FIGS. 99A and 99B show a comparison between a computational (COMSOL) model results and actual experimental results for cellular exposure ranges of the small-molecule compound Coumarin. […] For this experiment the microfluidic device was in fluidic communication with a perfusion manifold assembly.

A short description of data set [8]: Fluorescent molecule absorption in perfusion manifold assemblies under flow. The data set is classed as physicochemical. Conditions: 30 μL/hr for 38 hours. The method, then:
Fluorescent molecule Rhodamine B (a fluorescent molecule that is also moderately absorbing into PDMS and SEBS) was dissolved in a buffer, flowed through a perfusion manifold assembly (14) and absorbing microfluidic device (12) fabricated out of PDMS at 30 μL/hr for 38 hours on a culture module. The perfusion manifold assemblies (14) were rinsed with buffer not containing the fluorescent molecule at 200 μL/hr for an hour before the start of the experiment.
Following the experiment, the perfusion manifold assemblies (14) were disassembled and the vias (35) of the capping, gasketing and backplane assembly or fluidic layer assembly (34), as well as the perfusion manifold assembly (14) resistors (27), were imaged with fluorescent microscopy. FIG. 25A depicts the resulting fluorescence in the fluidic layer assembly (34) of an absorbing perfusion manifold assembly (14) comprising a combined gasketing and capping layer (26). FIG. 25B depicts the resulting fluorescence on one aspect the invention described herein, a low-absorbing perfusion manifold assembly comprising both a low-absorbing capping and low-absorbing gasketing layer. In the embodiment of the perfusion manifold assembly (14) used in the experiment, the capping layer was fabricated from COP and the gasketing layer was fabricated out of SEBS coated with Parylene. Bright white colors in FIGS. 25A and 25B correlate to greater degree of absorption of the fluorescent molecule Rhodamine B.

Data set [9] is described as follows: Fluorescent imaging of Parylene-coated gaskets exposed to Rhodamine B. The format is physicochemical. The text has this: Parylene-coated PDMS gaskets were exposed to the fluorescent molecule Rhodamine B and fluorescently imaged. […] However, the absorption is primarily localized to areas with sharp corners. […] Parylene-coated SEBS gaskets were exposed to the fluorescent molecule Rhodamine B and fluorescently imaged as well. […] However, the absorption is primarily localized to areas with sharp corners. Some absorption can be seen inside of the via, but it was minimal, difficult to visualize, and quite possibly an optical artifact unrelated to absorption.

Where [10] appears, read: tested before exposure, at 22 hours and at 92 hours.

“Also recorded” adds a separate entry of the source.

Here are results for 7 compounds from patent US12019083B2, “Compound distribution in microfluidic devices” (EMULATE, Inc., priority 2019, dated 2024).

On to `CCc1cccc2cc(C(O)CNC(C)(C)C)oc12` (stereo not shown) [Bufuralol], for which, in data set [1], the “SEBS partition value (K)” value is reported as 4.77 and the “absorption into SEBS” value was “absorbed somewhat”. Moreover, in data set [2], the “PDMS partition value (K)” value is “greater than 216” and the “absorption into PDMS” value was “absorbed almost entirely”. Besides, in data set [2] (LCMS), the “recovered concentration from the PDMS experiments” value is on record as “below the lower limit of detection”. The “absorption into glass, polypropylene, polystyrene or COP” value in [3] is recorded as “did not absorb significantly”.

Take `C=C(C)[C@@H]1CCC(C)=C[C@H]1c1c(O)cc(CCCCC)cc1O` [CBD, cannabidiol]: in data set [4] (microfluidic device fabricated entirely from PDMS), the “measured outlet concentrations of the compound” value is on record as 0. Also, the “absorption or loss of compound in microfluidic device fabricated from entirely PDMS” value in data set [4] (several flow rates, even at the highest flow rate) is recorded as “complete/total absorption or loss of compound”.

Take `O=c1ccc2ccccc2o1` [Coumarin]: the “effect of flow rate on absorption into PDMS” value in data set [4] (60 μL/hr versus 150 μL/hr, bottom channel sampled) was “less compound is absorbed into PDMS at faster flow rates”. Also, in data set [5], the “absorption by Parylene coated PDMS and SEBS” value is given as “some Coumarin was absorbed”. Further, in [6] (Parylene coated SEBS and E140, 22 and 92 hours), the “absorption into materials coated with Parylene” value is reported as “do not absorb significant amounts”. Also, in [6] (setting [10]), the “absorption into glass and COP compared to control solution” value is on record as “did not absorb”; the “absorption into uncoated SEBS and E140” value was “both absorb; also recorded: SEBS absorbed more of the compound than E140”. Further, the “absorption into SEBS of the perfusion manifold assembly” value in [7] was “especially susceptible to absorption”.

With `CN1C(=O)CN=C(c2ccccc2)c2cc(Cl)ccc21` [Diazepam], in data set [2] (by hour 12 of contact with PDMS), the “fraction of Diazepam absorbed by PDMS” value is “⅔ and two thirds”.

Turning to `Cc1ncc2n1-c1ccc(Cl)cc1C(c1ccccc1F)=NC2` [Midazolam], in data set [1], the “SEBS partition value (K)” value was found to be 4.05 and the “absorption into SEBS” value was “absorbed somewhat”. Moreover, in data set [2], the “PDMS partition value (K)” value turned out to be 201 and the “absorption into PDMS” value is “absorbed significantly”. The “absorption into glass, polypropylene, polystyrene or COP” value in data set [3] is on record as “did not absorb significantly”.

As to `CCN(CC)c1ccc2c(-c3ccccc3C(=O)O)c3ccc(=[N+](CC)CC)cc-3oc2c1` [Rhodamine B], in data set [8], the “absorption in perfusion manifold assemblies with COP capping layer and Parylene coated SEBS gasketing layer” value is “did not absorb a significant amount”; the “absorption in perfusion manifold assembly with COP capping layer and non-coated SEBS gasketing layer” value is given as “absorbed the fluorescent molecule”; the “absorption in perfusion manifold assembly with combined gasketing and capping layer” value is on record as “absorbed the fluorescent molecule”; the “absorption in resistors capped with COP” value is recorded as “very little”. For the same compound, in data set [8], the “absorption in resistors capped with SEBS” value is recorded as “relatively high extent”. Moreover, the “absorption in Parylene-coated SEBS gaskets (microscopy)” value in data set [9] is given as “some minimal absorption is present”. The “absorption within the microfluidic device ports of Parylene-coated PDMS gaskets” value in data set [9] (ports leading into the channels) is “No absorption was seen”. Also, the “absorption in Parylene-coated PDMS gaskets (microscopy)” value in [9] (whole gasket) is recorded as “some absorption is present but localized to areas that might not have been fully coated”. The “rate and extent of absorption” value in data set [4] (flow study outlet concentrations) is reported as “lower rate of absorption, but higher extent of absorption”. Further, the “absorption by Parylene coated PDMS and SEBS” value in data set [5] was “minimal Rhodamine B was absorbed”.

For `CN(C)CCC=C1c2ccccc2CCc2ccccc21` [amitriptyline], in data set [2], the “absorption into PDMS” value is given as “absorb into PDMS”.
